Data taken from patent US20130296413A1, “N-DESMETHYL-DOXEPIN AND METHODS OF USING THE SAME TO TREAT SLEEP DISORDERS” (Procom One, Inc., priority 2006, published 2013).

Assays:
[1] = tested on: patient suffering from transient or short term insomnia; test: Treatment of a patient with transient or short term insomnia; format: in vivo, human
Text: A patient suffers from transient or short term insomnia. The patient is otherwise healthy with normal affect with no depression, anxiety or substance overuse. The patient is prescribed desmethyldoxepin in a daily dosage of 1 milligram, prior to bedtime.
A patient suffers from transient or short term insomnia. The patient is otherwise healthy with normal affect with no depression, anxiety or substance overuse. The patient is prescribed desmethyldoxepin in a daily dosage of 2 milligrams, prior to bedtime.
A patient suffers from transient or short term insomnia. The patient also suffers from depression. The patient is prescribed desmethyldoxepin in a daily dosage of 2 milligrams, prior to bedtime.
A patient suffers from transient or short term insomnia. The patient is otherwise healthy with normal affect with no depression, anxiety or substance overuse. The patient is prescribed desmethyldoxepin in a daily dosage of 5 milligrams, prior to bedtime.
A patient suffers from transient or short term insomnia. The patient also suffers from depression. The patient is prescribed desmethyldoxepin in a daily dosage of 5 milligrams, prior to bedtime.
A patient suffers from transient or short term insomnia. The patient is otherwise healthy with normal affect with no depression, anxiety or substance overuse. The patient is prescribed desmethyldoxepin in a daily dosage of 10 milligrams, prior to bedtime.
A patient suffers from transient or short term insomnia. The patient also suffers from depression. The patient is prescribed desmethyldoxepin in a daily dosage of 10 milligrams, prior to bedtime.
A patient suffers from transient or short term insomnia. The patient is otherwise healthy with normal affect with no depression, anxiety or substance overuse. The patient is prescribed desmethyldoxepin in a daily dosage of 20 milligrams prior to bedtime.
A patient suffers from transient or short term insomnia. The patient also suffers from depression. The patient is prescribed desmethyldoxepin in a daily dosage of […] prior to bedtime.
A patient suffers from transient or short term insomnia. The patient is otherwise healthy with normal affect with no depression, anxiety or substance overuse. The patient is prescribed desmethyldoxepin in a daily dosage of 150 milligrams prior to bedtime.
A patient suffers from transient or short term insomnia. The patient also suffers from depression. The patient is prescribed desmethyldoxepin in a daily dosage of 150 milligrams prior to bedtime.

[2] = tested on: patient suffering from chronic insomnia; test: Treatment of a patient with chronic insomnia; format: in vivo, human
Text: A patient suffers from chronic insomnia. The patient is otherwise healthy with normal affect with no depression, anxiety or substance overuse. The patient is prescribed desmethyldoxepin in a daily dosage of 2 milligrams prior to bedtime.
A patient suffers from chronic insomnia. The patient also suffers from depression. The patient is prescribed desmethyldoxepin in a daily dosage of 1 milligram prior to bedtime.
A patient suffers from chronic insomnia. The patient also suffers from depression. The patient is prescribed desmethyldoxepin in a daily dosage of 2 milligrams prior to bedtime.
A patient suffers from chronic insomnia. The patient is otherwise healthy with normal affect with no depression, anxiety or substance overuse. The patient is prescribed desmethyldoxepin in a daily dosage of 5 milligrams prior to bedtime.
A patient suffers from chronic insomnia. The patient also suffers from depression. The patient is prescribed desmethyldoxepin in a daily dosage of 5 milligrams prior to bedtime.
A patient suffers from chronic insomnia. The patient is otherwise healthy with normal affect with no depression, anxiety or substance overuse. The patient is prescribed desmethyldoxepin in a daily dosage of 10 milligrams prior to bedtime.
A patient suffers from chronic insomnia. The patient also suffers from depression. The patient is prescribed desmethyldoxepin in a daily dosage of 10 milligrams prior to bedtime.
A patient suffers from chronic insomnia. The patient is otherwise healthy with normal affect with no depression, anxiety or substance overuse. The patient is prescribed desmethyldoxepin in a daily dosage of 20 milligrams prior to bedtime.
A patient suffers from chronic insomnia. The patient also suffers from depression. The patient is prescribed desmethyldoxepin in a daily dosage of 20 milligrams prior to bedtime.
A patient suffers from chronic insomnia. The patient is otherwise healthy with normal affect with no depression, anxiety or substance overuse. The patient is prescribed desmethyldoxepin in a daily dosage of 150 milligrams prior to bedtime.
A patient suffers from chronic insomnia. The patient also suffers from depression. The patient is prescribed desmethyldoxepin in a daily dosage of 150 milligrams prior to bedtime.

[3] = daily dosage of 2 milligrams prior to bedtime, patient also suffers from depression
[4] = daily dosage of 2 milligrams prior to bedtime, patient otherwise healthy, no depression, anxiety or substance overuse
[5] = daily dosage of 5 milligrams prior to bedtime, patient also suffers from depression
[6] = daily dosage of 5 milligrams prior to bedtime, patient otherwise healthy, no depression, anxiety or substance overuse
[7] = daily dosage of 10 milligrams prior to bedtime, patient also suffers from depression
[8] = daily dosage of 10 milligrams prior to bedtime, patient otherwise healthy, no depression, anxiety or substance overuse
[9] = daily dosage of 20 milligrams prior to bedtime, patient otherwise healthy, no depression, anxiety or substance overuse
[10] = daily dosage of 150 milligrams prior to bedtime, patient also suffers from depression
[11] = daily dosage of 150 milligrams prior to bedtime, patient otherwise healthy, no depression, anxiety or substance overuse

Measured: relief of insomnia

CNCC/C=C1/c2ccccc2COc2ccccc21 [desmethyldoxepin, Desmethyldoxepin]
relieves the insomnia: [1]; daily dosage of 1 milligram prior to bedtime, patient otherwise healthy, no depression, anxiety or substance overuse | [1]; [3] | [1]; [4] | [1]; [5] | [1]; [6] | [1]; [7] | [1]; [8] | [1]; [9] | [1]; daily dosage of 20 prior to bedtime, patient also suffers from depression | [1]; [10] | [1]; [11] | [2]; daily dosage of 1 milligram prior to bedtime, patient also suffers from depression | [2]; [3] | [2]; [4] | [2]; [5] | [2]; [6] | [2]; [7] | [2]; [8] | [2]; daily dosage of 20 milligrams prior to bedtime, patient also suffers from depression | [2]; [9] | [2]; [10] | [2]; [11]
